The subject of one series is naïve Balb/C mice. Put plainly: Luciferase liver model, aminolipid potency comparison (Example 2). The class given is in vivo, mouse. The following applies: intravenously, 0.5 mg/kg total mRNA, six hours following injection. The method, then:
(§1) The experiments described in this Example 2 used a firefly luciferase mRNA (“mLuc”), fully modified with pseudouridine and 5-methylcytidine replacing uridine and cytidine respectively. The LNP formulation used in these studies have the following general lipid composition (molar ratios): PEG-lipid (PEG2000-C-DMA (1.6 mol %); appropriate aminolipid (54.6 mol %); cholesterol (32.8 mol %); and DSPC (10.9 mol %). A lipid stock was prepared with the appropriate lipids dissolved in ethanol (12.6 mM). The mLuc stock was made up in a 40 mM EDTA buffer at 0.366 mg/mL in 40 mM EDTA. The two stocks were combined using the Jeffs et al method (Pharm. Research (2005), 22(3), pages 362-372), blending in a t-connector and diluted into Phosphate Buffered Saline, pH 7.4. Buffer exchange was then performed via overnight bag dialysis against 10× volume of PBS. After dialysis, LNP were concentrated by centrifugation in Vivaspin-6 or Vivaspin-20 units (MWCO 100 k) from GE Healthcare. The LNP were then sterile filtered (0.2 μm filter). Concentration of the LNP was determined using RiboGreen and a Varian Cary Eclipse Fluorimeter. Particle size and polydispersity were determined using a Malvern Nano Series Zetasizer.
LNP containing a luciferase mRNA payload were dosed at 0.5 mg/kg in naïve Balb/C mice (n=3). Six hours following injection, the mice were euthanized and livers were removed, weighed, and placed in lysing matrix tubes (containing one ceramic bead) on ice. PBS treatment groups were included to determine the background level of quenching of luciferase activity caused by the tissue homogenate in the Luciferase assay. Following collection, the tissues from these PBS treated animals were spiked with 50 μL of 100 ng/mL Luciferase solution in 1×CCLR (Cell Culture Lysis Reagent). Tissues were stored at −80° C. until Luciferase assay was performed.
(§2) All sample processing procedures were performed on ice. Tissues were homogenized and centrifuged in an Eppendorf microfuge at 3000 rpm & 4° C. for 10 minutes. After centrifugation, 20 μL of homogenate was aliquoted in duplicate into a white 96-well luminometer plate. Firefly luciferase […] was then analyzed on the EG&G Berthold Microplate Luminometer LB using the Promega Luciferase Assay System. The luciferase activity within the wells was determined by comparing the resulting RLUs for the homogenates to a standard curve prepared from 20 μL of firefly luciferase. A quenching factor was assigned to each tissue to control for natural quenching from the homogenates. This was determined using luciferase-spiked tissue from PBS treated mice.
The various formulations described were also assessed for potency in the mouse liver model. As an additional control, the use of the commercially available delivery reagent TransIT (Mirus) has been described in the literature for delivery of mRNA. A 0.05 mg/mL solution of TransIT-mRNA complex was prepared as follows. 50 μL of 1 mg/mL mRNA was added to 860 μL of DMEM, and to this solution the reagents from the TransIT-mRNA kit (Mirus) were added. In sequential order, 35 μL of the mRNA Boost reagent was added followed by 55 μL of the TransIT-mRNA reagent. The final solution was then incubated for 2-5 minutes before intravenous or intraperitoneal dosing.
All formulations were administered intravenously at a dose of 0.5 mg/kg total mRNA.

The nature of series [1]: Formulability: LNP particle size, polydispersity and mRNA encapsulation (Example 2). The class given is physicochemical. The note with it: mLuc LNP with the aminolipid at 54.6 mol %; 12.6 mM lipid stock. Here is the method: as §1
The effect of the choice of aminolipid on parameters such as formulability and potency in the mRNA formulations was examined. As benchmarks, we selected the dilinoleyl lipids 5, 6, 7, and 8. […] We also selected a range of lipids with hydrophobic domains consisting of multiple (3 or 4) alkyl chains; 10, 9, 11, 13, 14, 17, and 18. Formulations were prepared as described above, using a 12.6 mM lipid stock.

Series [2] can be described thus: Reproducibility of lipid particle formulation. The class given is physicochemical. The note with it: multiple mLuc LNP formulations; lipid stock 8.3-19.0 mM total lipid. The method, then: Two aminolipids were selected to examine the reproducibility of lipid particle formulation. The benchmark dilinoleyl aminolipid MC3 was compared to the short trialkyl lipid 13-B43.
Multiple formulations were made, using the following composition (expressed as molar percentages): PEG-lipid (PEG2000-C-DMA) (1.6 mol %); amino lipid (54.6 mol %); cholesterol (32.8 mol %); and DSPC (10.9 mol %), according to the general procedures described above. The lipid stock was prepared in ethanol (ranging from 8.3-19.0 mM total lipid). The mRNA stock was prepared at 0.366 mg/mL in 40 mM EDTA. Buffer exchange was then performed via overnight bag dialysis against 10× volume of PBS. Samples were then concentrated to […] mRNA by centrifugation in Vivaspin-20 units (MWCO 100 k) from GE Healthcare. The LNP were then sterile filtered. Concentration of the LNP was determined using RiboGreen and a Varian Cary Eclipse Fluorimeter. Particle size and polydispersity were determined using a Malvern Nano Series Zetasizer.

Another series concerns Balb/C mice. Put plainly: Luciferase assay of Example 1 with tetraalkyl lipids, liver (Example 8). The class given is in vivo, mouse. The following applies: particles comprising the lipid, assay described in Example 1. The method, then: In the liver model, LNP were dosed at 0.5 mg/kg in the naïve Balb/C mice (n=5). Six hours following injection, the mice were euthanized and the livers were removed, weighed, and placed in lysing matrix tubes (containing one ceramic bead) on ice.
as §2, with “rpm at” for “rpm &”, “resulting Relative Light Units (RLUs)” for “resulting RLUs”
In particular, the tetraalkyl lipids mediated an enhanced level of delivery of luciferase mRNA to living cells than the established benchmark dialkyl lipid 8 shown in Table 8.

The values below come from patent publication US20230165973A1, “COMPOSITIONS AND METHODS FOR DELIVERING MESSENGER RNA” (ARBUTUS BIOPHARMA CORPORATION, priority 2013, published 2023).

Molecules are shown by their SMILES. Several values for one entry are separate records, joined by “and”; a condition that tells them apart may be missing. Identical values can stand only once.

With `CCCCC/C=C\C/C=C\CCCCCCCCC(CCCCCCCC/C=C\C/C=C\CCCCC)OC(=O)CCCN(C)C` [Compound 7, (6Z,9Z,28Z,31Z)-heptatriaconta-6,9,28,31-tetraen-19-yl 4-(dimethylamino)butanoate], the “Luciferase protein in ng per g of liver” value in the series with naïve Balb/C mice is recorded as 369.85 ng per g of liver. Further, in series [1], the “% Encaps (Percentage Encapsulation)” value was 50%, the “PDI (polydispersity index)” value is 0.11 and the “Zavg (average lipid particle diameter)” value amounted to 158 nm. In series [2], the “% Encaps of mLuc” value was 56% and 63% and 49% and 50% and 69% and 52%; the Particle size was 134 nm and 151 nm and 158 nm and 119 nm; the “Polydispersity Index” value was 0.11 and 0.07 and 0.08 and 0.14 and 0.12.
Consider `CCCCC/C=C\C/C=C\CCCCCCCCC(CCCCCCCC/C=C\C/C=C\CCCCC)OCCCN(C)C` [Compound 8], for which the “Luciferase protein in ng per g of liver” value in the series with naïve Balb/C mice is 264.90 ng per g of liver. Further, in series [1], the “% Encaps (Percentage Encapsulation)” value is recorded as 57%, the “PDI (polydispersity index)” value came to 0.13 and the “Zavg (average lipid particle diameter)” value worked out at 144 nm. Further, the “Activity in luciferase assay” value in the series on Balb/C mice is 774,159 pg/g liver tissue.
As to `CCCCC/C=C\CCCC(CCC/C=C\CCCCC)C(CCC/C=C\CCCCC)OC(=O)CCCN(C)C` (stereo not drawn) [Compound 9], the “Luciferase protein in ng per g of liver” value in the series on naïve Balb/C mice is 968.83 ng per g of liver. For the same compound, in series [1], the “% Encaps (Percentage Encapsulation)” value was 62%, the “PDI (polydispersity index)” value was found to be 0.06 and the “Zavg (average lipid particle diameter)” value stood at 95 nm.
Take `CCCCC/C=C\C/C=C\CCCCCCCCC(OC(=O)CCCCN(C)CC)C(O)(CCCCCCCC/C=C\C/C=C\CCCCC)CCCCCCCC/C=C\C/C=C\CCCCC` (stereo not drawn) [Compound 10, (6Z,9Z,29Z,32Z)-20-hydroxy-20-((9Z,12Z)-octadeca-9,12-dienyl)octatriaconta-6,9,29,32-tetraen-19-yl 5-(ethyl(methyl)amino)pentanoate]: the “Luciferase protein in ng per g of liver” value in the series with naïve Balb/C mice was 203.47 ng per g of liver.
For `CCC/C=C\CCC(CC/C=C\CCC)CC(OC(=O)CCCCN(C)C)C(CC/C=C\CCC)CC/C=C\CCC` (stereo not drawn) [Compound 18], the “Luciferase protein in ng per g of liver” value in the series on naïve Balb/C mice is 1388.39 ng per g of liver. Further, in series [1], the “% Encaps (Percentage Encapsulation)” value was found to be 88%, the “PDI (polydispersity index)” value is listed as 0.08 and the “Zavg (average lipid particle diameter)” value came out at 117 nm.
Turning to `CCCCC/C=C\CCCC(CCC/C=C\CCCCC)C(CC/C=C\CCCCC)OC(=O)CCCCN(C)C` (stereo not drawn) [Compound 19], in series [1], the “% Encaps (Percentage Encapsulation)” value worked out at 78%, the “PDI (polydispersity index)” value was found to be 0.10 and the “Zavg (average lipid particle diameter)” value came to 138 nm.
With `CCCCCCCCC(CCCCCC)CC(CC(CCCCCC)CCCCCCCC)OC(=O)CCCCN(C)C` (stereo not drawn) [Compound 35, 9,13-dihexylhenicosan-11-yl 5-(dimethylamino)pentanoate], the “Activity in luciferase assay” value in the series with Balb/C mice is 1,412,464 pg/g liver tissue.
Same read-out and setting: in the case of `CCCCCCCCC(CCCCCC)CC(CC(CCCCCC)CCCCCCCC)OC(=O)CCCCCN(C)C` (stereo not drawn) [Compound 37, 9,13-dihexylhenicosan-11-yl 6-(dimethylamino)hexanoate] it was 2,228,526 pg/g liver tissue; in that of `CCCCC/C=C\CCCC(CCC/C=C\CCCCC)C(CC(CCCC)CCCCCC)OC(=O)CCCCN(C)C` (stereo not drawn) [Compound 43, (Z)-7-butyl-10-((Z)-dec-4-en-1-yl)icos-14-en-9-yl 5-(dimethylamino)pentanoate], 919,590 pg/g liver tissue.
